Measured values as given in patent US7964598B2 (The J. David Gladstone Institutes, priority 1995, dated 2011).
Where “and” joins values, the source holds several entries; their conditions need not be identical. Equal entries are not always repeated. Entries after “also recorded” stand apart in the source; their conditions may differ.

Columns and labels:
Neuro-2a cells [1] = assay: Aβ-induced apoptosis (DNA fragmentation assay); assay type: cell-based, mouse
Description: DNA Fragmentation Assay—DNA fragmentation of apoptotic cells was determined with Cell Death Detection ELISA kits (Roche, Indianapolis, Ind.).
FIG. 38. […] Control cells were not treated with Aβ1-42. Apoptotic cell death was measured with a DNA fragmentation assay. Values are the mean±S.D. of three separate experiments.
FIGS. 39A and 39B. […] Lysosomal leakage was quantitated by assaying cytosolic 0-hexosaminidase activity. […] Conditioned media were prepared as described above. Apoptosis was quantitated by measuring DNA fragmentation.

apoE4 = target: T1, apoE4 (Homo sapiens, UniProt P02649, C130R); assay: Emulsion binding assay for domain interaction, apoE4
T1 construct: made in house
T1 sequence (P02649 19-317 C130R): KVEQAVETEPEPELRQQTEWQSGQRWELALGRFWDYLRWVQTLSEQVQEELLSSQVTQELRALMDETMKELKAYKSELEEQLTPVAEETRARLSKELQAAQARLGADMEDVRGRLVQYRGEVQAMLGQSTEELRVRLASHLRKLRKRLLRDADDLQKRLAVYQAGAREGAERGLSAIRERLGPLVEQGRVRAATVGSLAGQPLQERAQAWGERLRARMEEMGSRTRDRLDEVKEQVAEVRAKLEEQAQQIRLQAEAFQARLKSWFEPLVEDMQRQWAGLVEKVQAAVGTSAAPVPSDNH
Description: Preparation of emulsion particles. Triolein (160 mg) and L-alpha-Phosphatidylcholine (40 mg) are combined and dried under nitrogen. After the addition of 8 mls of buffer (10 mM Tris, 100 mM KCl, 1 mM EDTA, pH 8.0), the mixture is sonicated in a water bath to obtain a heterogeneous mix of emulsion particles. The particles are harvested by ultracentrifugation (TLA 100.2 rotor, 30,000 rpm for 30 minutes) and the subsequent lipid cake is removed by tube slicing and resuspended in 100 μt 20 mM Phosphate Buffer (PB). Triolein and phospholipid content are measured and total emulsion particle concentration is determined.
Radiolabelling Freshly denatured and renatured Apolipoprotein E3 and E4 are radiolabelled using Bolton-Hunter Reagent [^125I] (ICN). Specific Activity is determined using Lowry method and Gamma 8000 counter.
Binding Affinity Assay. […] In glass tubes, 25 μg of protein (with iodinated tracer) was reduced with 1% β-mercaptoethanol. Two hundred and fifty μg of emulsion particles and 2.5 μl of compound (10 mM stock) were added and the final mixture was brought up to 250 μl with 20 mM phosphate buffer (PB). The reaction mixture was then incubated in a 37° C. water bath for 2 hours before being transferred to 1.5 ml ultracentrifuge tubes. Finally, 50 μl of 60% sucrose was mixed with the sample and 400 μl 20 mM PB was carefully layered on top. Using a TLA 100.2 rotor, the tube was spun at 30,000 rpm for 30 minutes and subsequently cut to separate the floating emulsion particle layer from the free protein at the bottom of the tube. These fractions were then combined with the respective half of the actual tube and counted using a Gamma-8000. […] Protein-only assays yielded 94.5-96.6% of protein accumulated in the bottom portion of the tube. In emulsion particle-only assays, 94% of emulsion particles accumulated in the top portion of the tube.
Preparation of Emulsion Particles and VLDL Binding Affinity Assay. VLDL-like emulsion particles were prepared using triolein (160 mg) and L-alpha-phosphatidylcholine (40 mg), as described. Dong and Weisgraber (1996) supra; and Dong et al. (1994) J. Biol. Chem. 269:22358-22365.

YFP-apoE3-CFP = target: T2, YFP-apoE3-CFP (Homo sapiens, UniProt P02649); assay: Cell-based FRET assay, YFP-apoE3-CFP
T2 construct: vector signal peptide (pFLAG-CMV3) (N); FLAG (N); expressed in transfected cells
T2 sequence (P02649 19-317): as the sequence (P02649 19-317 C130R) above, with R112C counted along it
Text: (§1) Xu et al. (2004) J. Biol. Chem. 279:25511-25516. FRET—the non-radioactive transfer of photon energy from an excited fluorophore (donor) to another fluorophore (acceptor)—occurs only when the donor and acceptor are in close proximity (<100 Å). Thus, this approach can be used to measure nanometer scale distances.
(§2) Xu et al. (2004) J. Biol. Chem. 279:25511-25516. The constructs are depicted schematically in FIG. 29.
(§3) Since the emission spectrum of CFP (460-520 nm) overlaps with the excitation spectrum of YFP (480-520 nm), FLEXstation (Molecular Devices) can be used to measure FRET in living cells expressing YFP-apoE3-CFP or YFP-apoE4-CFP in a high throughput manner. […] Thus, the ratio of FRET to CFP emission in cells expressing YFP-apoE4-CFP is much higher than that in those expressing YFP-apoE3-CFP (FIG. 31). […] Since the FLEXstation can read FRET in both cells and the culture media treated without or with various small molecules, this assay allows one to know whether a small molecule affects apoE4 domain interaction only in the medium (“medium FRET”) or also inside the cell (“intracellular FRET”). In addition, after measurement of the intracellular FRET, the cells can be incubated further with MTT to determine the cytotoxicity of the compound. Thus, the cell-based FRET assay can simultaneously provide three sets of data-intracellular FRET, medium FRET, and cytotoxicity.
(§4) Quantifying FRET in Transfected Neuro-2a Cells—Stably transfected Neuro-2a cells expressing YFP-apoE3-CFP or YFP-apoE4-CFP at similar levels were selected by fluorescence activated cell sorter (FACS). YFP and CFP images of transfected cells were acquired with the Meta Detector, and their fluorescence intensities were analyzed with the mounted computer. The FRET signal was calculated as the ratio of YFP to CFP fluorescence intensity under CFP excitation. For each YFP-apoE-CFP construct, the FRET signal was measured in at least 12 cells from different fields.
(§5) Quantifying FRET in the Culture Medium—Neuro-2a cells stably expressing YFP-apoE3-CFP or YFP-apoE4-CFP and wildtype cells were grown in T175 flasks to 90% confluence and incubated with serum-free minimum essential medium containing N2 supplement for 24 h. The conditioned medium (20 ml/flask) was concentrated about 20-fold with Centriplus-YM-10 concentrators (Amicon, Bedford, Mass.), dialyzed against PBS, illuminated at the CFP excitation wavelength (430 nm), and scanned for emission spectrum. The FRET signal was calculated as the ratio of emission at 525 nm (YFP) to that at 475 nm (CFP). Conditioned medium from cells expressing apoE3-CFP or apoE4-CFP was used to determine baseline fluorescence in the absence of FRET.

Neuro-2a cells [2] = assay: Aβ-induced lysosomal leakage (cytosolic β-hexosaminidase); assay type: cell-based, mouse
Description: The cytosolic fraction was obtained by ultracentrifugation, and the cytosolic β-hexosaminidase activity was measured.
Quantitation of the lysosomal enzyme β-hexosaminidase activity in the cytosol indicates lysosomal leakage. […] After incubation the cells were washed and cytosolic fractions were isolated as described in Materials and Methods. The enzymatic activity of β-hexosaminidase was assayed in 20 μg of cytosolic protein for each sample.
Lysosomal leakage was quantitated by assaying cytosolic 0-hexosaminidase activity. […] Conditioned media were prepared as described above. Apoptosis was quantitated by measuring DNA fragmentation.

YFP-apoE4-CFP cells = assay: MTT cytotoxicity assay; assay type: cell-based, mouse; conditions: 5-10 μM
Text: as §3

B103 cells = assay: Toxicity to B103 cells; assay type: cell-based, rat; conditions: at the micromole level
YFP-apoE4-CFP = target: T3, YFP-apoE4-CFP (Homo sapiens, UniProt P02649, C130R); assay: Cell-based FRET assay, YFP-apoE4-CFP; conditions: 5-20 μM
T3 construct: vector signal peptide (pFLAG-CMV3) (N); FLAG (N); expressed in transfected cells
T3 sequence (P02649 19-317 C130R): as the sequence (P02649 19-317 C130R) above
Text: as §1, §2, §3, §4, §5

[3] = follow-up assay, second E4 control
[4] = initial assay, 2.5 μl of compound (10 mM stock) in 250 μl, 37° C. 2 hours

- E4 + cpd n = 3, % bound (apoE4; follow-up assay): 57%
- E4 + cpd n = 3, % free (apoE4; follow-up assay): 43%
- E4 control, % bound (apoE4; [3]): 46%
- E4 control, % free (apoE4; [3]): 54%
- E4 + cpd, % bound (apoE4; [4]): 12% and 15%
- E4 + cpd, % free (apoE4; [4]): 88% and 85%
- ratio of FRET to CFP emission in the cells expressing YFP-apoE4-CFP (YFP-apoE4-CFP; intracellular): decreased significantly
- ratio of FRET to CFP emission in media of YFP-apoE4-CFP cells (YFP-apoE4-CFP; medium): decreased significantly
Structure (SMILES): O=S(=O)([O-])c1ccc2c(c1)c(Nc1ccc(S(=O)(=O)O)cc1)cc1c2nc2ccccc2[n+]1-c1ccccc1 [GIND-25, azocarmine-G]
- apoptosis, cells with medium alone or medium containing apoE3 plus Aβ1-42 (Neuro-2a cells [1]): no significant effect
- apoE4 potentiation of Aβ-induced apoptosis (Neuro-2a cells [1]; apoE4 conditioned medium, Aβ1-42): block; also recorded: abolish
- apoE4 domain interaction / binding of apoE4 to VLDL-like emulsion particles (apoE4): capable of blocking apoE4 domain interaction; also recorded: inhibited significantly
- ratio of FRET to CFP emission in cells expressing YFP-apoE3-CFP (YFP-apoE3-CFP; intracellular): none of these compounds altered significantly
- ratio of FRET to CFP emission in media of YFP-apoE3-CFP cells (YFP-apoE3-CFP; medium): none of these compounds altered significantly
- lysosomal leakage, cells with medium alone or medium containing apoE3 plus Aβ1-42 (Neuro-2a cells [2]): no significant effect
- apoE4 potentiation of Aβ-induced lysosomal leakage (Neuro-2a cells [2]; 5 μM, apoE4 conditioned medium, Aβ1-42 20 μM): block; also recorded: abolish
- cytotoxicity (MTT assay) (YFP-apoE4-CFP cells): did not cause significant cytotoxicity
- toxicity to B103 cells (B103 cells): no significant toxicity
